Test results: US9409896B2, “Sustained release pharmaceutical compositions comprising an antibacterial agent” (Melinta Therapeutics, Inc., priority 2010, dated 2016)
In brackets after ≈: the same amount, converted by molar mass. Where two headings read alike, the source gives them in different places.

Columns and labels:
[1] = Polarized light microscopy of drug suspended in buffers with or without sodium chloride; type: physicochemical; conditions: in the presence of chloride ion
Experimental: The common ion effect was studied using dissolution and microscopic methods. The microscopic method was conducted with drug suspended in water, pH 1.2, pH 4 and pH 6.5 buffers with and without sodium chloride. The dissolution of the drug and its granulations were studied using three different 2-step dissolution methods which entails the following: Method #1: simple 2-step buffers at pH 4 from 0-30 minutes and at pH 6.5 from 30-90 minutes. Method #2: simple 2-step buffers with the presence of chloride ion in both steps. Method #3: simple buffer at pH 4 with presence of chloride ion from 0-30 minutes; and buffer with bile salts and surfactants at pH 6.5 from 30-90 minutes. The two steps represent fed stomach and intestinal conditions, respectively.
Formulation Preparation Bulk drug powders were wet granulated with and without excipients. Granules were dried and sized through a #18 mesh screen. Polarized Microscopic Observation Microscopic test was conducted with drug suspended in water, pH 1.2, 4, and 6.5 buffers with and without sodium chloride. Dissolution Test: Four dissolution media were tested. Results of these tests are shown in line-graph formats in FIGS. 3-7. Bulk drug powders were wet granulated with and without excipients. […]
An in-vivo dog study was conducted with beagle dogs (wt=12 kg, n=3). […] Serial of plasma samples were collected, extracted, and analyzed by LC/MS/MS. […]

Food effect = conditions: in vivo
Caco-2 permeability = type: in vitro ADME; conditions: human
pKa of model compound = type: physicochemical
log P of model compound = type: physicochemical
Solubility = type: physicochemical
[2] = Monkey oral bioavailability; conditions: in vivo, at 20 mg/kg dose

In the case of CC(=O)NC[C@H]1CN(c2ccc(-c3ccc(CNCc4cnn[nH]4)cc3)c(F)c2)C(=O)O1 [model compound, N-[3-(2-fluoro-4′-{[(3H-[1,2,3]triazol-4-ylmethyl)-amino]-methyl}-biphenyl-4-yl)-2-oxo-oxazolidin-5-(S)-ylmethyl]-acetamide], the “microscopic observation of aggregates” value [1] is reported as “formed aggregates in the presence of chloride ion”, the Positive food effect (Food effect) is reported as 4 × and the Papp (Caco-2 permeability) is reported as 0.5 ×10⁻⁶ cm/s. For the same compound, the pKa (pKa of model compound) was 6.8, the logP (log P of model compound) was 0.7 and the solubility (Solubility; at pH 6.8, read-out: Intrinsic solubility) was 10 µg/mL (≈ 22.8 µM). The solubility (Solubility; water, pH 4, water, read-out: Solubility of salt in water) was 2600 µg/mL, the solubility (Solubility; water, pH 5.4, water, read-out: Solubility of salt in water) was 200 µg/mL and the solubility (Solubility; water, pH 6.5, water, read-out: Solubility of salt in water) was 60 µg/mL. It also gave a bioavailability [2] of 15%.
